Values quoted from earlier work as cited in US9974804B1, “Strontium-based composition, product, and method of using the same to control progression of osteoarthritis osteoporosis and tooth decay” (priority 2017, dated 2018).

Key:
[1] = compared to placebo group
[2] = three-year daily use, compared to the control group
[3] = supplemented in the human diet
[4] = osteoporosis; daily doses of 6.4 grams for months to years

In the case of `N#Cc1c(N(CC(=O)[O-])CC(=O)[O-])sc(C(=O)[O-])c1CC(=O)[O-].[Sr+2].[Sr+2]` [strontium ranelate], the “increase in osteoblast activity parameters” value [1] is given as roughly 10%, the “trabecular and cortical bone thickness” value [1] is given as 14-18% and the “reduction in hip fracture” value [2] is given as 36%. The “reduction in nonvertebral fracture” value [2] was 19% and the “reduction in vertebral fracture” value [2] was roughly 49%.

For `[Sr+2]` [strontium], the “time after which fifty percent of bone strontium disappears” value (after strontium supplementation is discontinued) is listed as 10 weeks and the “daily renal clearance relative to that of calcium” value (renal tubule excretion) is listed as “about three”.

For `O=C([O-])[O-].[Sr+2]` [strontium carbonate], the tolerability / toxicity [3] is given as “well tolerated without reported toxicity”.

In the case of `CC(O)C(=O)[O-].CC(O)C(=O)[O-].[Sr+2]` (stereo not drawn) [strontium lactate], the marked subjective improvement [4] is given as 84%.
